Reference: the NIST ThermoML archive (doi:10.1021/je5005752)

Experiment: xn = mol fraction of the nth substance listed
Conditions: 101 kPa, Liquid; for viscosity: Falling or rolling sphere viscometry; for mass density: Vibrating tube method

CCCC(=O)OCC [ethyl butanoate] + CC(C)CO
Conditions | mass density [kg/m3] | viscosity [mPa·s]
288.15 K, x1 = 0.1 | 816.01 | 2.899
288.15 K, x1 = 0.2001 | 825.5 | 2
288.15 K, x1 = 0.3001 | 834.2 | 1.516
288.15 K, x1 = 0.3999 | 842.57 | 1.24
288.15 K, x1 = 0.5 | 850.43 | 1.057
288.15 K, x1 = 0.5999 | 857.77 | 0.9319
288.15 K, x1 = 0.7001 | 864.75 | 0.8287
288.15 K, x1 = 0.8001 | 871.45 | 0.785
288.15 K, x1 = 0.8997 | 877.93 | 0.7449
288.15 K, x1 = 1 | 884.16 | 0.7224
293.15 K, x1 = 0.1 | 811.92 | 2.51
293.15 K, x1 = 0.2001 | 821.21 | 1.768
293.15 K, x1 = 0.3001 | 829.72 | 1.363
293.15 K, x1 = 0.3999 | 837.92 | 1.129
293.15 K, x1 = 0.5 | 845.64 | 0.9727
293.15 K, x1 = 0.5999 | 852.86 | 0.8638
293.15 K, x1 = 0.7001 | 859.73 | 0.7883
293.15 K, x1 = 0.8001 | 866.33 | 0.7356
293.15 K, x1 = 0.8997 | 872.73 | 0.7006
293.15 K, x1 = 1 | 878.9 | 0.6808
298.15 K, x1 = 0.1 | 807.82 | 2.19
298.15 K, x1 = 0.2001 | 816.89 | 1.571
298.15 K, x1 = 0.3001 | 825.21 | 1.233
298.15 K, x1 = 0.3999 | 833.26 | 1.032
298.15 K, x1 = 0.5 | 840.84 | 0.8977
298.15 K, x1 = 0.5999 | 847.92 | 0.8022
298.15 K, x1 = 0.7001 | 854.69 | 0.7366
298.15 K, x1 = 0.8001 | 861.2 | 0.6907
298.15 K, x1 = 0.8997 | 867.52 | 0.6599
298.15 K, x1 = 1 | 873.62 | 0.643
303.15 K, x1 = 0.1 | 803.67 | 1.92
303.15 K, x1 = 0.2001 | 812.54 | 1.406
303.15 K, x1 = 0.3001 | 820.68 | 1.118
303.15 K, x1 = 0.3999 | 828.56 | 0.9462
303.15 K, x1 = 0.5 | 836 | 0.8309
303.15 K, x1 = 0.5999 | 842.97 | 0.7472
303.15 K, x1 = 0.7001 | 849.63 | 0.6895
303.15 K, x1 = 0.8001 | 856.05 | 0.6488
303.15 K, x1 = 0.8997 | 862.29 | 0.6217
303.15 K, x1 = 1 | 868.33 | 0.6072
308.15 K, x1 = 0.1 | 799.49 | 1.693
308.15 K, x1 = 0.2001 | 808.15 | 1.262
308.15 K, x1 = 0.3001 | 816.12 | 1.018
308.15 K, x1 = 0.3999 | 823.84 | 0.8702
308.15 K, x1 = 0.5 | 831.14 | 0.7709
308.15 K, x1 = 0.5999 | 837.99 | 0.6967
308.15 K, x1 = 0.7001 | 844.55 | 0.6458
308.15 K, x1 = 0.8001 | 850.88 | 0.6101
308.15 K, x1 = 0.8997 | 857.04 | 0.5862
308.15 K, x1 = 1 | 863.02 | 0.5736
313.15 K, x1 = 0.1 | 795.27 | 1.501
313.15 K, x1 = 0.2001 | 803.72 | 1.137
313.15 K, x1 = 0.3001 | 811.51 | 0.9295
313.15 K, x1 = 0.3999 | 819.09 | 0.8021
313.15 K, x1 = 0.5 | 826.25 | 0.7166
313.15 K, x1 = 0.5999 | 832.98 | 0.6507
313.15 K, x1 = 0.7001 | 839.44 | 0.6059
313.15 K, x1 = 0.8001 | 845.69 | 0.5742
313.15 K, x1 = 0.8997 | 851.78 | 0.5531
313.15 K, x1 = 1 | 857.7 | 0.5425
318.15 K, x1 = 0.1 | 791 | 1.337
318.15 K, x1 = 0.2001 | 799.25 | 1.029
318.15 K, x1 = 0.3001 | 806.87 | 0.8513
318.15 K, x1 = 0.3999 | 814.29 | 0.7413
318.15 K, x1 = 0.5 | 821.33 | 0.6676
318.15 K, x1 = 0.5999 | 827.95 | 0.6086
318.15 K, x1 = 0.7001 | 834.31 | 0.569
318.15 K, x1 = 0.8001 | 840.47 | 0.5409
318.15 K, x1 = 0.8997 | 846.5 | 0.5224
318.15 K, x1 = 1 | 852.36 | 0.5132
323.15 K, x1 = 0.1 | 786.67 | 1.219
323.15 K, x1 = 0.2001 | 794.73 | 0.9403
323.15 K, x1 = 0.3001 | 802.18 | 0.785
323.15 K, x1 = 0.3999 | 809.46 | 0.6914
323.15 K, x1 = 0.5 | 816.36 | 0.6257
323.15 K, x1 = 0.5999 | 822.87 | 0.5716
323.15 K, x1 = 0.7001 | 829.14 | 0.5382
323.15 K, x1 = 0.8001 | 835.23 | 0.5126
323.15 K, x1 = 0.8997 | 841.18 | 0.4958
323.15 K, x1 = 1 | 847 | 0.487
